Reference: PubChem BioAssay (NCI)
Several values for one entry are separate records, joined by “and”; a condition that tells them apart may be missing. Equal entries are not always repeated.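 Five compound concentrations were applied to cells in 96-well plates for 48 hours; endpoints were derived by simple linear interpolation of the resulting dose-response curve. GI50 = concentration required for 50% inhibition of growth. TGI denotes the concentration required for complete inhibition of growth.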

Legend:
Test in all cases: DTP human tumour cell line panel, 48 h
786-0 renal = tested on: 786-0 renal
A498 renal = tested on: A498 renal
A549 NSCLC = tested on: A549 NSCLC
HL-60(TB) leukemia = tested on: HL-60(TB) leukemia
MOLT-4 leukemia = tested on: MOLT-4 leukemia
NCI-H522 lung = tested on: NCI-H522 lung
OVCAR-8 ovarian = tested on: OVCAR-8 ovarian
SW-620 colon = tested on: SW-620 colon
HOP-92 NSCLC = tested on: HOP-92 NSCLC
OVCAR-5 ovarian = tested on: OVCAR-5 ovarian

| Structure (SMILES) | TGI (786-0 renal) | TGI (A498 renal) | TGI (A549 NSCLC) | TGI (HL-60(TB) leukemia) | TGI (MOLT-4 leukemia) | TGI (NCI-H522 lung) | TGI (OVCAR-8 ovarian) | TGI (SW-620 colon) | TGI (HOP-92 NSCLC) | TGI (OVCAR-5 ovarian) | GI50 (786-0 renal) | GI50 (A498 renal) | GI50 (A549 NSCLC) | GI50 (HOP-92 NSCLC) | GI50 (MOLT-4 leukemia) | GI50 (NCI-H522 lung) | GI50 (OVCAR-5 ovarian) | GI50 (OVCAR-8 ovarian) | GI50 (SW-620 colon) | GI50 (HL-60(TB) leukemia) |
| --- | --- | --- | --- | --- | --- | --- | --- | --- | --- | --- | --- | --- | --- | --- | --- | --- | --- | --- | --- | --- |
| CN(C)CCC(CCN(C)C)=NO | > 100 µM | > 100 µM | > 100 µM | > 100 µM | > 100 µM | > 100 µM | > 100 µM | > 100 µM | – | – | – | – | – | – | – | – | – | – | – | – |
| CCOC(=O)C1=C(C)NC2=C(C(=O)N(c3ccccc3)C2c2ccccc2)C1c1ccccc1 (centres undefined) | 35.8 µM | – | 44.2 µM | 81.2 µM | 56.2 µM | 25.9 µM | 53.4 µM | 47.5 µM | 25.8 µM | 29.8 µM | – | – | – | – | – | – | – | – | – | – |
| O=C(NCCCl)Nc1cccnc1 | 39.9 µM | 40.5 µM | 99.5 µM | > 100 µM | 81.8 µM | 62.1 µM | 27.9 µM | > 100 µM | 53.3 µM | – | – | – | – | – | – | – | – | – | – | – |
| COc1cc(CC2c3cc(OC)c(OC)cc3CCN2C)ccc1O (centres undefined) | > 100 µM | > 100 µM | > 100 µM | – | > 100 µM | > 100 µM | > 100 µM | > 100 µM | – | > 100 µM | – | – | – | – | – | – | – | – | – | – |
| O=C(Cc1nc2ccccc2o1)C(=O)Nc1cccc(Cl)c1 | > 100 µM | > 100 µM | > 100 µM | > 100 µM | > 100 µM | > 100 µM | > 100 µM | > 100 µM | > 100 µM | – | – | – | – | – | – | – | – | – | – | – |
| CC(C)(C)c1cc(/C=N/NC(=O)c2ccccc2NC(=O)c2cccs2)c(O)c(C(C)(C)C)c1 | 15.7 µM | 42.5 µM | 17.9 µM | – | 20.6 µM | 30.4 µM | 11.2 µM | 17.8 µM | 80.5 µM | 62.4 µM | 0.588 µM | 10.4 µM | 0.796 µM | 4.44 µM | 0.872 µM | 1.84 µM | 2.83 µM | 0.895 µM | 1.38 µM | – |
| CC(C)(C)c1cc(CCCCCCCC2(CCCCCCCc3cc(C(C)(C)C)cc(C(C)(C)C)c3)OC(COCCOCCCCCC#N)C(COCCOCCCCCC#N)O2)cc(C(C)(C)C)c1 (centres undefined) | > 100 µM | > 100 µM | > 100 µM | > 100 µM | – | > 100 µM | > 100 µM | > 100 µM | > 100 µM | > 100 µM | – | – | – | – | – | – | – | – | – | – |
| COC(=O)c1ccc(/C=C(\c2ccc([N+](=O)[O-])o2)S(=O)(=O)c2ccc(NC(C)=O)cc2)o1 | 14.9 µM | – | 34.1 µM | 8.69 µM | 7.76 µM | 5.02 µM | 11.8 µM | 11.8 µM | 24 µM | 10.9 µM | – | – | – | – | – | – | – | – | – | – |
| C=C1C(=O)O[C@H]2[C@H](OC(C)=O)[C@@H](C)CCCC3(C)OC3CCC3(CO3)[C@H](O)C[C@@H]12 (some centres undefined) | 21 µM | – | 74.8 µM | – | 4.14 µM | 28.7 µM | > 100 µM | 19.6 µM | – | 12 µM | 5.15 µM | – | 19.8 µM | – | 1.73 µM | 9.6 µM | 2.38 µM | 17.5 µM | 5.16 µM | – |
| CC1(C)N=C(N)N=C(N)N1c1ccc(OCCCNC(=O)Nc2cccc(S(=O)(=O)F)c2)c(Cl)c1 | > 100 µM | > 100 µM | > 100 µM | > 100 µM | > 100 µM | – | > 100 µM | > 100 µM | > 100 µM | > 100 µM | 1.11 µM | 21.9 µM | 1.69 µM | 3.06 µM | 3.26 µM | – | 3.98 µM | 7.02 µM | 1.64 µM | 0.441 µM |
| CCN(CC)CC(C)C(=O)/C=C/c1ccc(C)cc1 (centres undefined) | 3.65 µM | 20.6 µM | 13.4 µM | 14.4 µM | 7.07 µM | – | 11.3 µM | 2.96 µM | 4.84 µM | 28 µM | – | – | – | – | – | – | – | – | – | – |
| COc1ccc(C(=O)c2c3cc(OC)c(OC)c(OC)c3cc[n+]2C)cc1 | 33.5 µM | > 100 µM | 34.7 µM | – | > 100 µM | 62.4 µM | > 100 µM | > 100 µM | – | > 100 µM | – | – | – | – | – | – | – | – | – | – |
| Cc1cnc2oc3ccc(O)cc3c2c1-c1ccccc1 | > 100 µM | 70.5 µM | > 100 µM | > 100 µM | – | > 100 µM | > 100 µM | > 100 µM | 38.5 µM | > 100 µM | 36.3 µM | 21.5 µM | > 100 µM | 3.34 µM | – | 44.9 µM | > 100 µM | 99 µM | > 100 µM | > 100 µM |
| O=c1[nH]c(=O)n(C2CC(O)C(CO)O2)cc1C(F)(C(F)(F)F)C(F)(F)F (centres undefined) | > 100 µM | > 100 µM | – | > 100 µM | > 100 µM | > 100 µM | > 100 µM | > 100 µM | > 100 µM | > 100 µM | – | – | – | – | – | – | – | – | – | – |
| O=C1C(=C([O-])c2ccccc2)C(=O)c2ccccc21.O=C1C(=C([O-])c2ccccc2)C(=O)c2ccccc21.[Mn+2] | > 100 µM | – | > 100 µM | – | > 100 µM | – | > 100 µM | > 100 µM | – | > 100 µM | > 100 µM | – | > 100 µM | – | > 100 µM | – | > 100 µM | > 100 µM | > 100 µM | – |
| Oc1c(Cl)cc(Cl)cc1/C=N/Nc1nnc(N/N=C/c2cc(Cl)cc(Cl)c2O)c2ccccc12 | > 100 µM | > 100 µM | > 100 µM | – | > 100 µM | 6.7 µM | > 100 µM | > 100 µM | – | > 100 µM | 0.418 µM | 2.19 µM | 0.419 µM | 0.284 µM | 0.363 µM | 0.366 µM | 0.957 µM | 0.406 µM | 0.416 µM | – |
| COC(=O)[C@@]1(C)C(=O)CC[C@@H]1C=O | > 100 µM | > 100 µM | > 100 µM | > 100 µM | > 100 µM | > 100 µM | > 100 µM | > 100 µM | – | > 100 µM | – | – | – | – | – | – | – | – | – | – |
| COc1cccc(-c2cc(=O)c3cc(N4CCOCC4)ccc3[nH]2)c1 | > 100 µM | – | > 100 µM | 0.0593 µM and 0.0492 µM | 1.48 µM and 0.17 µM | 0.0395 µM and 0.0852 µM | 0.337 µM and 0.152 µM | > 100 µM | – | > 100 µM | 0.0602 µM | – | 0.225 µM | 0.246 µM | 0.0338 µM | 0.0209 µM | 0.268 µM | 0.0303 µM | 0.0125 µM | – |
